Experimental data: article PMC4342090, “A novel inhibitor of Plasmodium falciparum spermidine synthase: a twist in the tail” (Malaria Journal, 2015)
Entries after “also recorded” stand apart in the source; their conditions may differ. Like-named read-outs stand apart in the source and are kept apart here. Peptide text beside a SMILES is read from it.

Columns and labels:
PfSpdS [1] = molecular target: T1, PfSpdS (Plasmodium falciparum, UniProt Q8II73); details: cited from earlier work; for IC50: P. falciparum, read-out: Enzyme inhibition, IC50
T1 sequence (Q8II73 entry or part of it): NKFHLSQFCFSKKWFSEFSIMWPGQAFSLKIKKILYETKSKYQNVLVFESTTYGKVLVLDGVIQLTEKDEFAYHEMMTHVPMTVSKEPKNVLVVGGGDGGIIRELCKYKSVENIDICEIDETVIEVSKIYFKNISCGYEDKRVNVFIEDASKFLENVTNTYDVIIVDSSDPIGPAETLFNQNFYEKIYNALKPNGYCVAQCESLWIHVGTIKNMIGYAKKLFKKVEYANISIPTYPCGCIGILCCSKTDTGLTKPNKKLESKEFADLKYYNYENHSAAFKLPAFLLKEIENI

mammalian SpdS [2] = details: cited from earlier work; for IC50: Mammalian, read-out: Enzyme inhibition, IC50
PfSpdS [3] = molecular target: T1, PfSpdS; test: biochemical; format: biochemical; details: for inhibition at 100 µM: read-out: % Inhibition (at 100 μM); for fold difference in IC50 between compound 8 and compound 9: PfSpdS; for pseudo-substrate for PfSpdS: unpublished results of the authors
Procedure: A 29 amino acid N-terminus deletion mutant of PfSpdS cloned into pTRCHisB (Invitrogen) was expressed in E. coli BLR (DE3), purified and assayed as described by Haider et al. [18]. […] Stock solutions of the inhibitors were prepared in dddH2O. For the 100 μM assays, 1 μg purified PfSpdS, 50 μM RS-dcAdoMet, 100 nCi [2,3-^3H] putrescine hydrochloride (60 Ci/mmol; American Radiolabelled Chemicals, Inc, Minnesota, USA) and 50 μM unlabelled putrescine dihydrochloride (Sigma) were used. […] All inhibition assays were performed in triplicate.

mammalian SpdS [4] = test: Mammalian spermidine synthase enzyme inhibition; format: biochemical
[5] = test system: mammalian spermine synthase; parameters: method as in Shirahata et al. [22]; details: ref Shirahata et al. [22], cited from earlier work
[6] = molecular target: the molecule itself; test: crystal structure; hanging drop vapour diffusion, 293 K; 25% PEG3350, 0.1 M MES pH 5.6, 0.1 M (NH4)2SO4; protein pre-incubated with 2.5 mM compound 8 and MTA; space group C121, three molecules in the asymmetric unit; interface analysed with PISA
[7] = ref Lakanen et al. [21], Pegg et al. [38]
[8] = 100 μM compound, PfSpdS activity inhibited compared to untreated enzyme, mean ± SEM, 100 µM

5′-methylthioadenosine [MTA]
IC50 (PfSpdS [1]; ref Haider et al. [18]): 159 ± 27 µM

C[C@H]1CC[C@H](N)CC1 [4MCHA, trans-4-methylcyclohexylamine]
IC50 (mammalian SpdS [2]; [7]): 1.7 µM
IC50 (PfSpdS [1]; ref Haider et al. [18]): 1.4 ± 0.1 µM
inhibition at 100 µM (PfSpdS [3]): 95.3 ± 0.4%

C=CCCCN [APE, 5-amino-1-pentene]
IC50 (mammalian SpdS [2]; ref Goda et al. [39]): 1.7 µM
IC50 (PfSpdS [1]; ref Haider et al. [18]): 6.5 ± 2.1 µM

NCCCCCC(CCN)SCC1OC(n2cnc3c(N)ncnc32)C(O)C1O (stereo not shown) [AdoDATO, S-adenosyl-1,8-diamino-3-thio-octane]
IC50 (mammalian SpdS [2]; [7]): 0.05 to 0.1 µM
IC50 (PfSpdS [1]; ref Dufe et al. [20]): 8.5 µM
fold lower IC50 for mammalian SpdS compared to the P. falciparum enzyme (mammalian SpdS [4]; ref [18],[20],[38]): 170 fold
fold less efficient inhibitor of mammalian SpdS than adenosylspermidine (mammalian SpdS [4]; ref [21],[38]): 3-7 fold

CC1CCN(CCCN)CC1 [Compound 1, 1-(3-ammoniopropyl)-4-methylpiperidin-1-ium]
inhibition at 100 µM (PfSpdS [3]): 17 ± 9.4%

CN1CCC(N)CC1 [Compound 2, trans-4-amino-1-methylpiperidine]
inhibition at 100 µM (PfSpdS [3]; 100 μM compound, PfSpdS activity inhibited compared to untreated enzyme, mean ± SEM): 6.9 ± 5.8%

NCCCC[C@H](NC(=O)[C@@H](N)Cc1ccc(O)cc1)C(N)=O [Compound 3] (H-Tyr-Lys-NH2)
% Inhibition (at 100 μM) (PfSpdS [3]; [8]): No Inhibition; also recorded: did not inhibit

NCCCN1CCN(CCCN)CC1 [Compound 4, 3-[4-(3-azaniumylpropyl)piperazine-1,4-diium-1-yl]propylazanium]
% Inhibition (at 100 μM) (PfSpdS [3]; [8]): No Inhibition; also recorded: did not inhibit

CN1CCN(CCC(=O)NNC=C2C=CC(=O)C=C2O)CC1 [Compound 5, N’-[(2-hydroxy-4-oxocyclohexa-2,5-dien-1-ylidene)methyl]-3-(4-methylpiperazine-1,4-diium-1-yl)-propanehydrazide]
% Inhibition (at 100 μM) (PfSpdS [3]; [8]): No Inhibition
% Inhibition (at 100 μM) (PfSpdS [3]; 100 μM compound, PfSpdS activity inhibited compared to untreated enzyme, mean ± SEM, listed as compound 5, 100 µM): neither compound showed reduction in PfSpdS activity

CN(C[C@H](O)CN)C[C@H](O)CN1CCCCC1 [Compound 6, [(2R)-3-azaniumyl-2-hydroxypropyl]-[(2S)-2-hydroxy-3-piperidin-1-ium-1-ylpropyl]-methylazanium]
% Inhibition (at 100 μM) (PfSpdS [3]; [8]): No Inhibition
% Inhibition (at 100 μM) (PfSpdS [3]; 100 μM compound, PfSpdS activity inhibited compared to untreated enzyme, mean ± SEM, listed as compound 6, 100 µM): neither compound showed reduction in PfSpdS activity

NCCCC[C@H](NC(=O)[C@@H](N)CCCCN)C(=O)Nc1ccc2ccccc2c1 [Compound 7, [(2S)-6-azaniumyl-1-[[(2S)-6-azaniumyl-1-(naphthalen-2-ylamino)-1-oxohexan-2-yl]amino]-1-oxohexan-2-yl]azanium]
% Inhibition (at 100 μM) (PfSpdS [3]; [8]): No Inhibition
% Inhibition (at 100 μM) (PfSpdS [3]; 100 μM compound, PfSpdS activity inhibited compared to untreated enzyme, mean ± SEM, listed as compound 7, 100 µM): showed no inhibition

NCCCN[C@H]1CC[C@H](N)CC1 [Compound 8, N-(3-aminopropyl)-trans-cyclohexane-1,4-diamine]
IC50 (PfSpdS [3]): 619 ± 144 µM
fold difference in IC50 between compound 8 and compound 9 (PfSpdS [3]): 100 fold
inhibition at 100 µM (PfSpdS [3]): 12.7 ± 9.1%
pseudo-substrate for PfSpdS (PfSpdS [3]): acts as a pseudo-substrate

NCCCNC1CCCCC1 [Compound 9, N-(3-aminopropyl)-cyclohexylamine]
inhibition of mammalian SpdS (mammalian SpdS [2]; ref Shirahata et al. [22]): does not inhibit
inhibition of mammalian SpdS (mammalian SpdS [2]; ref Shirahata et al. [22], listed as compound 9): did not inhibit and not
inhibition of mammalian spermine synthase [5]: inhibitor
inhibition of mammalian spermine synthase ([5]; listed as compound 9): potent inhibitor
IC50 (PfSpdS [3]): 7.4 ± 2.4 µM
Ki (PfSpdS [3]): 2.8 µM
fold difference in IC50 between compound 8 and compound 9 (PfSpdS [3]): 100 fold
type of inhibition (PfSpdS [3]; between compound and putrescine, preliminary kinetic experiments): mixed-type competitive inhibition
inhibition at 100 µM (PfSpdS [3]): 88.3 ± 1.2%
pseudo-substrate for PfSpdS (PfSpdS [3]): no evidence was found

NC1CCCCC1 [Cyclohexylamine]
IC50 (mammalian SpdS [2]; ref Shirahata et al. [22]): 8.1 µM
IC50 (PfSpdS [1]; ref Haider et al. [18]): 19.7 ± 3.1 µM

C[S+](CCCN)C[C@H]1O[C@@H](n2cnc3c(N)ncnc32)[C@H](O)[C@@H]1O (stereo partly shown) [dcAdoMet, decarboxylated S-adenosylmethionine]
Km (mammalian SpdS [2]; mammalian enzyme, ref [18],[20],[38], read-out: Km value of the enzyme for dcAdoMet): 7 to 25 µM
Km (PfSpdS [1]; P. falciparum enzyme, ref [18],[20],[38], read-out: Km value of the enzyme for dcAdoMet): 35 µM

N[C@H]1CC[C@H](N)CC1 [trans-1,4-diaminocyclohexane]
pseudo-substrate for mammalian SpdS (mammalian SpdS [2]; ref [22]): ~ 12%

B1: Plasmodium falciparum spermidine synthase lacking 39 amino acids at the N-terminus (enzyme, UniProt Q8II73 40-321, looked up)
chain: SKKWFSEFSIMWPGQAFSLKIKKILYETKSKYQNVLVFESTTYGKVLVLDGVIQLTEKDEFAYHEMMTHVPMTVSKEPKNVLVVGGGDGGIIRELCKYKSVENIDICEIDETVIEVSKIYFKNISCGYEDKRVNVFIEDASKFLENVTNTYDVIIVDSSDPIGPAETLFNQNFYEKIYNALKPNGYCVAQCESLWIHVGTIKNMIGYAKKLFKKVEYANISIPTYPCGCIGILCCSKTDTGLTKPNKKLESKEFADLKYYNYENHSAAFKLPAFLLKEIENI
notes: Plasmodium falciparum spermidine synthase (EC 2.5.1.16), protein lacking 39 amino acids at the N-terminus, cloned into the p15-TEV-LIC vector, from SGC Toronto; Crystallised with compound 8 and MTA; Three molecules in the asymmetric unit; subunits B and C form the homodimer; also called PfSpdS; 39 amino acid N-terminal truncated PfSpdS protein; source: expression and isolation according to Dufe …
binding result [6]: binds
